Assay results reported in patent publication US20190292603A1, “METHOD FOR PREDICTING THE RESPONSIVENESS OF A PATIENT TO A TREATMENT WITH mTOR INHIBITORS” (INSTITUT NATIONAL DE LA SANTE ET DE LA RECHERCHE MEDICALE, priority 2018, published 2019).

Tested on: Eμ-Myc-GAPDHlow lymphoma
Assay: Survival of OxPhos Eμ-Myc-GAPDHlow-bearing mice treated with Temsirolimus in vivo
Details: data not shown

**Q.** With `CO[C@H]1C[C@@H]2CC[C@@H](C)[C@@](O)(O2)C(=O)C(=O)N2CCCC[C@H]2C(=O)O[C@H]([C@H](C)C[C@@H]2CC[C@@H](OC(=O)C(C)(CO)CO)[C@H](OC)C2)CC(=O)[C@H](C)/C=C(\C)[C@@H](O)[C@@H](OC)C(=O)[C@H](C)C[C@H](C)/C=C/C=C/C=C/1C` [Temsirolimus] as the molecule, how does the survival read?
**A.** significantly increases
